Test results: ChEMBL document CHEMBL4414602, “Bipolaricins A-I, Ophiobolin-Type Tetracyclic Sesterterpenes from a Phytopathogenic Bipolaris sp. Fungus” (J Nat Prod, 2019)
Activity calls are given as the source filed them. The rule behind the calls is not given here.

Assays:
A549 = experiment: Cytotoxicity against human A549 cells by MTT assay; assay type: cell-based
MDA-MB-231 = experiment: Cytotoxicity against human MDA-MB-231 cells by MTT assay; assay type: cell-based
SW1990 = experiment: Cytotoxicity against human SW1990 cells by MTT assay; assay type: cell-based
RAW264.7 [1] = experiment: Cytotoxicity against mouse RAW264.7 cells at 40 uM by MTT assay; assay type: cell-based; details: raw264.7, 40 µM
RAW264.7 [2] = experiment: Antiinflammatory activity in mouse RAW264.7 cells assessed as inhibition of LPS-induced nitric oxide production pretreated for 2 hrs followed by LPS challenge and measured after 12 hrs by Griess assay; assay type: functional, cell-based
HepG2 = experiment: Cytotoxicity against human HepG2 cells by MTT assay; assay type: cell-based
RAW264.7 [3] = experiment: Antiinflammatory activity in mouse RAW264.7 cells assessed as inhibition of LPS-induced RANTES production at 5 to 10 uM pretreated for 2 hrs followed by LPS challenge and measured after 12 hrs by ELISA; assay type: functional, cell-based
[4] = target: Transcription factor p65 (Mus musculus) (UniProt Q04207); experiment: Inhibition of LPS-induced NF-kappaB p65 translocation in mouse RAW264.7 cells at 5 to 10 uM pretreated for 2 hrs followed by LPS challenge measured after 12 hrs by DAPI staining based fluorescence microscopic analysis; assay type: cell-based
Chain of Transcription factor p65 (Mus musculus) (Q04207 whole entry): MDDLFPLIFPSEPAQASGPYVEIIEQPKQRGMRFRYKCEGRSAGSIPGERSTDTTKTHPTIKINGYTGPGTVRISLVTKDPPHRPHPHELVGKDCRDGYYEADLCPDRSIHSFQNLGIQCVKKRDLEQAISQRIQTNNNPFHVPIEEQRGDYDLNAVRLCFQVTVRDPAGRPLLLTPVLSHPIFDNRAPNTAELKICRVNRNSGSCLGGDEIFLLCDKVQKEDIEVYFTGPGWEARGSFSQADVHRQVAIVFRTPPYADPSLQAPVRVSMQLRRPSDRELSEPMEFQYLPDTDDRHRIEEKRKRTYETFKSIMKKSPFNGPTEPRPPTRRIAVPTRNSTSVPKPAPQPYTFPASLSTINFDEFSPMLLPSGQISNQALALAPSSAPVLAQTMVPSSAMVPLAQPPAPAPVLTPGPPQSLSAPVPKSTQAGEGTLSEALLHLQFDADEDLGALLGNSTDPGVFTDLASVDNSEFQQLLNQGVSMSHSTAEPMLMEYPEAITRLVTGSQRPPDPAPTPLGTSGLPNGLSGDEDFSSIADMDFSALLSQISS

RAW264.7 [5] = experiment: Antiinflammatory activity in mouse RAW264.7 cells assessed as increase in LPS-induced HO-1 protein level pretreated for 2 hrs followed by LPS challenge and measured after 12 hrs by Western blot analysis; assay type: functional, cell-based
RAW264.7 [6] = experiment: Antiinflammatory activity in mouse RAW264.7 cells assessed as inhibition of LPS-induced TNFalpha production at 5 to 10 uM pretreated for 2 hrs followed by LPS challenge and measured after 12 hrs by ELISA; assay type: functional, cell-based
[7] = target: T1, 3-hydroxy-3-methylglutaryl-coenzyme A reductase (Homo sapiens, UniProt P04035); experiment: Inhibition of human HMGR using HMGCoA as substrate measured after 15 mins in presence of NADPH by UV microplate reader analysis
T1 sequence (P04035 whole entry): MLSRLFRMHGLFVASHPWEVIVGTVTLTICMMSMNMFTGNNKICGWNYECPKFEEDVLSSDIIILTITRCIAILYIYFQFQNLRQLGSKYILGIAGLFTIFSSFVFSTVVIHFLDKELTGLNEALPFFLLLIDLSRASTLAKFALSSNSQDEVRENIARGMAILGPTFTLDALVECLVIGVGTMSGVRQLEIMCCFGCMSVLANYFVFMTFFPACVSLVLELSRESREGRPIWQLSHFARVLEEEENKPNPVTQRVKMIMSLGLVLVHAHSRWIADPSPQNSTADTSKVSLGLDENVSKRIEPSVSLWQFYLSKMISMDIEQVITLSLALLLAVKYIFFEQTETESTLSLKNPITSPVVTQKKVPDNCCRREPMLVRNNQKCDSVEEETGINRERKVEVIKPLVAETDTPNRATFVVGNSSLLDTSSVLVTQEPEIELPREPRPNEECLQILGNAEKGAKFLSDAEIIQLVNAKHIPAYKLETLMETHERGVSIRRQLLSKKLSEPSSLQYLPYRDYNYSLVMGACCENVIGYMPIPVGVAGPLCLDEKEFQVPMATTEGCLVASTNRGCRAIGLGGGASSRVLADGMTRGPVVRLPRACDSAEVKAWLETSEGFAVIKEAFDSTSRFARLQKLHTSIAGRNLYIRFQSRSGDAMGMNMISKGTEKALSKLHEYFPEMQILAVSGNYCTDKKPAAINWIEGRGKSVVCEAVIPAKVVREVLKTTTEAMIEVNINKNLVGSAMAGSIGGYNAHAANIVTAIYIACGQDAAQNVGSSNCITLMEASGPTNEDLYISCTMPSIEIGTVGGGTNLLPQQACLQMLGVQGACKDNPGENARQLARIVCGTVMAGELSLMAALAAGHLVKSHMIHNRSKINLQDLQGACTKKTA

RAW264.7 [8] = experiment: Antiinflammatory activity in mouse RAW264.7 cells assessed as inhibition of LPS-induced MIP-1beta production at 5 to 10 uM pretreated for 2 hrs followed by LPS challenge and measured after 12 hrs by ELISA; assay type: functional, cell-based
RAW264.7 [9] = experiment: Antiinflammatory activity in mouse RAW264.7 cells assessed as increase of LPS-induced IL-3 production at 5 to 10 uM pretreated for 2 hrs followed by LPS challenge and measured after 12 hrs by ELISA; assay type: functional, cell-based
RAW264.7 [10] = experiment: Antiinflammatory activity in mouse RAW264.7 cells assessed as inhibition of LPS-induced IL-1beta production at 5 to 10 uM pretreated for 2 hrs followed by LPS challenge and measured after 12 hrs by ELISA; assay type: functional, cell-based

| SMILES | IC50 (A549) | IC50 (MDA-MB-231) | IC50 (SW1990) | Activity (RAW264.7 [1]) | IC50 (RAW264.7 [2]) | IC50 (HepG2) | inhibition (RAW264.7 [3]) | inhibition [4] | Activity (RAW264.7 [5]) | inhibition (RAW264.7 [6]) | IC50 [7] | inhibition (RAW264.7 [8]) | Activity (RAW264.7 [9]) | inhibition (RAW264.7 [10]) |
| --- | --- | --- | --- | --- | --- | --- | --- | --- | --- | --- | --- | --- | --- | --- |
| CC(C)=C[C@H]1C[C@H](C)[C@]2(CC[C@]3(C)C[C@H]4[C@H](CC[C@@]4(C)O)/C(CO)=C\C[C@H]32)O1 | > 40 µM | > 40 µM | > 40 µM | Non-Toxic | > 40 µM | > 40 µM |  |  |  |  |  |  |  |  |
| CC(C)=C[C@H]1C[C@H](C)[C@]2(CC[C@]3(C)C[C@@H]4C(C)=CC(=O)/C4=C(\C(=O)O)[C@@H](O)C[C@H]32)O1 | > 40 µM | > 40 µM | > 40 µM | Non-Toxic | > 40 µM | > 40 µM |  |  |  |  |  |  |  |  |
| CC(C)=C[C@H]1C[C@H](C)[C@]2(CC[C@]3(C)C[C@@H]4C(C)=CC(=O)/C4=C(\CO)[C@H](O)C[C@H]32)O1 | > 40 µM | > 40 µM | > 40 µM | Non-Toxic | 20 µM | > 40 µM |  |  |  |  |  |  |  |  |
| CC1=CC(=O)/C2=C(\CO)[C@@H](O)C[C@@H]3[C@](C)(CC[C@@]34O[C@@H](/C=C(\C)CO)C[C@@H]4C)C[C@H]12 | > 40 µM | > 40 µM | > 40 µM | Non-Toxic | 19 µM | > 40 µM |  |  |  |  |  |  |  |  |
| CC1=CC(=O)/C2=C(\CO)CC[C@@H]3[C@](C)(CC[C@@]34O[C@@H](/C=C(\C)CO)C[C@@H]4C)C[C@H]12 | > 40 µM | > 40 µM | > 40 µM | Non-Toxic | > 40 µM | > 40 µM |  |  |  |  |  |  |  |  |
| CC(C)=C[C@H]1C[C@H](C)[C@]2(CC[C@]3(C)C[C@@H]4C(C)=CC(=O)[C@H]4/C(C(=O)O)=C\C[C@H]32)O1 | > 40 µM | > 40 µM | > 40 µM | Non-Toxic | > 40 µM | > 40 µM |  |  |  |  |  |  |  |  |
| CC(C)=C[C@H]1C[C@H](C)[C@]2(CC[C@]3(C)C[C@@H]4C(C)=CC(=O)/C4=C(\CO)[C@@H](O)C[C@H]32)O1 | > 40 µM | > 40 µM | > 40 µM | Non-Toxic | 6.7 µM | > 40 µM |  |  |  |  |  |  |  |  |
| CC(C)=C[C@H]1C[C@H](C)[C@]2(CC[C@]3(C)C[C@@H]4C(CO)=CC(=O)[C@H]4/C(C)=C\C[C@H]32)O1 | > 40 µM | > 40 µM | > 40 µM | Non-Toxic | > 40 µM | > 40 µM |  |  |  |  |  |  |  |  |
| CC1=CC(=O)/C2=C(\CO)[C@H](O)C[C@@H]3[C@](C)(CC[C@@]34O[C@@H](/C=C(\C)CO)C[C@@H]4C)C[C@H]12 | > 40 µM | > 40 µM | > 40 µM | Non-Toxic | > 40 µM | > 40 µM |  |  |  |  |  |  |  |  |
| CC1=CC(=O)[C@H]2/C(C=O)=C\C[C@@H]3[C@](C)(CC[C@@]34O[C@@H](/C=C(\C)CO)C[C@@H]4C)C[C@H]12 | > 40 µM | > 40 µM | > 40 µM | Non-Toxic | 19 µM | > 40 µM |  |  |  |  |  |  |  |  |
| COc1ccc2c(c1)c(CC(=O)O)c(C)n2C(=O)c1ccc(Cl)cc1 [INDOMETHACIN] |  |  |  |  | 8.8 µM |  |  |  |  |  |  |  |  |  |
| CC(C)=C[C@H]1C[C@H](C)[C@]2(CC[C@]3(C)C[C@@H]4C(C)=CC(=O)[C@H]4/C(C=O)=C\C[C@H]32)O1 [3-ANHYDRO-6-EPI-OPHIOBOLIN A] | > 40 µM | > 40 µM | > 40 µM | Non-Toxic | 5.1 µM | > 40 µM | Active | Active | Dose-dependent effect | Active | 8.4 µM | Active | Active | Active |
| CC1=CC(=O)[C@H]2/C(C)=C\C[C@@H]3[C@](C)(CC[C@@]34O[C@@H](/C=C(\C)CO)C[C@@H]4C)C[C@H]12 | > 40 µM | > 40 µM | > 40 µM | Non-Toxic | > 40 µM | > 40 µM |  |  |  |  |  |  |  |  |
